The values that follow are results of earlier work, collected in patent US20040086873A1, “System and method of generating and storing correlated hyperquantified tissue structure and biomolecular expression datasets” (priority 2002, published 2004).

The conditions of the data set: 1000 mg/kg/day, intraperitoneal injection once a day, dissolved in corn oil (~15% v/v).

`ClC(Cl)(Cl)Cl` [CC14]: the “toxicity of the dose level (hepatotoxic / lethal)” value was “hepatotoxic but not lethal”.
